Experimental data taken from ChEMBL document CHEMBL5291721, “A preclinical secondary pharmacology resource illuminates target-adverse drug reaction associations of marketed drugs” (Nat Commun, 2023).

Legend:
Adenosine receptor A3 = biological target: T1, Adenosine receptor A3 (Homo sapiens, UniProt P0DMS8)
T1 sequence (P0DMS8 whole entry): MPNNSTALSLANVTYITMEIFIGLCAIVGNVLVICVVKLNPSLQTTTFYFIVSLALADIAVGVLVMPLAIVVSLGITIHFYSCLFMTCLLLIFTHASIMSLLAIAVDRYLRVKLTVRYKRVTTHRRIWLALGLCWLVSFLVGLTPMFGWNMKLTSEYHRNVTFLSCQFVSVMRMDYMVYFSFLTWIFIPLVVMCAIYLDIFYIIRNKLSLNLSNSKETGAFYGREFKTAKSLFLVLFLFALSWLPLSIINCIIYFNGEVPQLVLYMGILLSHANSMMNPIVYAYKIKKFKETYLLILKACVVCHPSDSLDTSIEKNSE

[1] = biological target: Beta-1 adrenergic receptor (Homo sapiens, UniProt P08588); format: functional
[2] = biological target: T2, Cholecystokinin receptor type A (Homo sapiens, UniProt P32238)
T2 sequence (P32238 whole entry): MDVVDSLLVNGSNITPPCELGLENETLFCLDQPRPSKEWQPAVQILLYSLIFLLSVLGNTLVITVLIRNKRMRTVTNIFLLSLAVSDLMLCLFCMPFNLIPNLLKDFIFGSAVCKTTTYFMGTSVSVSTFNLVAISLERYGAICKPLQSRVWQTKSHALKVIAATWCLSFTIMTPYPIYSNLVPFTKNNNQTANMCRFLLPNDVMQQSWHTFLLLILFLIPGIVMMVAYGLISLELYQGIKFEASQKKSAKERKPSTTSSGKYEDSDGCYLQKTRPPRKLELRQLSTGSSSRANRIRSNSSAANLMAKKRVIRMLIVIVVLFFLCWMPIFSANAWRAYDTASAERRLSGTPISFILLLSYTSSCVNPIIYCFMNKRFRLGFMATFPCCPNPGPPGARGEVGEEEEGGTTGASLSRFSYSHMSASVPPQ

[3] = biological target: Muscarinic acetylcholine receptor M3 (Homo sapiens, UniProt P20309)
[4] = biological target: T3, 5-hydroxytryptamine receptor 3A (Homo sapiens, UniProt P46098); format: functional
T3 sequence (P46098 whole entry): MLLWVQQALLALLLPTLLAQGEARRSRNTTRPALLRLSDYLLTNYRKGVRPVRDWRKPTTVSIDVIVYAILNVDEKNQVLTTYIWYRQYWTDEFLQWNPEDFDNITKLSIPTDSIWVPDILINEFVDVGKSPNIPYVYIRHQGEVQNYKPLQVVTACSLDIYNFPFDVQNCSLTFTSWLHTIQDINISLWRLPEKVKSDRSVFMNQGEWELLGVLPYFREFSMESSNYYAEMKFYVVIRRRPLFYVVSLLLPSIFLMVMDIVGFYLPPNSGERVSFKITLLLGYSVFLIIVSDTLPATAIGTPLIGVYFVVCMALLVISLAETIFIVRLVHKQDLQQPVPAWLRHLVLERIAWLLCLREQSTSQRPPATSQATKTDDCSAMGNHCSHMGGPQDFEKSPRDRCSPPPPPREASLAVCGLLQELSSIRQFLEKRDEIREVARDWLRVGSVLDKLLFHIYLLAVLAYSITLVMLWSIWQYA

Glucocorticoid receptor = biological target: T4, Glucocorticoid receptor (Homo sapiens, UniProt P04150)
T4 sequence (P04150 whole entry): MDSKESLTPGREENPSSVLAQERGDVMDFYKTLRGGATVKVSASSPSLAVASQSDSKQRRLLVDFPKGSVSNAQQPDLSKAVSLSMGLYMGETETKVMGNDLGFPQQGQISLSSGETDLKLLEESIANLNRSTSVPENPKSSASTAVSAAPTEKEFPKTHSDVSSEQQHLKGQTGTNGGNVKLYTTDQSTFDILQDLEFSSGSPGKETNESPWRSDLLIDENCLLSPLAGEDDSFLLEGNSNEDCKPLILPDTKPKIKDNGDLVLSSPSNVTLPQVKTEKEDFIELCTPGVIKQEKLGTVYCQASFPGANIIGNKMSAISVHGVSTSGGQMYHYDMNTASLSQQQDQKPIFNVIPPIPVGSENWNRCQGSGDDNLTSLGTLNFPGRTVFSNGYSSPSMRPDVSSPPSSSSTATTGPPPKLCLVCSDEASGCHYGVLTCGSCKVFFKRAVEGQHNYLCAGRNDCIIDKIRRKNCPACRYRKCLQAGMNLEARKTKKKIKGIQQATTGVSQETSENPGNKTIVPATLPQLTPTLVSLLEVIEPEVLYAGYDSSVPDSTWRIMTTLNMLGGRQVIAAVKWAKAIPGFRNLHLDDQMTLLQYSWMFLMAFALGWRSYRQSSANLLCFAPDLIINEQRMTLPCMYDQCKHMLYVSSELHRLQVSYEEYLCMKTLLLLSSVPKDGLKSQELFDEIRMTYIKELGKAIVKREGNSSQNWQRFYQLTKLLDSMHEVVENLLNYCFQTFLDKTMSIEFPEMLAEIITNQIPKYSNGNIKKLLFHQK

[5] = biological target: Delta-type opioid receptor (Homo sapiens, UniProt P41143)
[6] = biological target: Kappa-type opioid receptor (Homo sapiens, UniProt P41145)
Thromboxane A2 receptor = biological target: T5, Thromboxane A2 receptor (Homo sapiens, UniProt P21731)
T5 sequence (P21731 whole entry): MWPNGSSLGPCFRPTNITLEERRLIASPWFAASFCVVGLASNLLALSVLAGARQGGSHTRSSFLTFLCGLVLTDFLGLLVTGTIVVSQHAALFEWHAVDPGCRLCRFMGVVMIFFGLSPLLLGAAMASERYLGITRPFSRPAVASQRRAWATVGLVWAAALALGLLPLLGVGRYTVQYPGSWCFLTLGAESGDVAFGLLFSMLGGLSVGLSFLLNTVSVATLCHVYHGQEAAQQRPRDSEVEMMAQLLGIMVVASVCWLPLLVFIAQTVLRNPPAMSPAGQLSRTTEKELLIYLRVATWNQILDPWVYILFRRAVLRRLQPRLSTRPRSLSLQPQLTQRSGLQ

[7] = biological target: Sodium-dependent noradrenaline transporter (Homo sapiens, UniProt P23975)
Also: assay procedure not described here.

Sequence of Delta-type opioid receptor (P41143 whole entry): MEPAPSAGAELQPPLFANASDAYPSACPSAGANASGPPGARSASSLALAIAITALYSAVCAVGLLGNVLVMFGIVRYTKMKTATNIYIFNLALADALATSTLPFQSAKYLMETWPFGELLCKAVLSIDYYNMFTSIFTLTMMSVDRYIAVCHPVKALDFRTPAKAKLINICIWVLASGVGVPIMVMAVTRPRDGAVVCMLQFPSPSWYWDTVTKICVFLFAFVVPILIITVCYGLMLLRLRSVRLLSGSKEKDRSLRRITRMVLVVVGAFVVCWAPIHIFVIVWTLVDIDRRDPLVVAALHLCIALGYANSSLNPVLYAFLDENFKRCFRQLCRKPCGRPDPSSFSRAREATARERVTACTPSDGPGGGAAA
Sequence of Beta-1 adrenergic receptor (P08588 whole entry): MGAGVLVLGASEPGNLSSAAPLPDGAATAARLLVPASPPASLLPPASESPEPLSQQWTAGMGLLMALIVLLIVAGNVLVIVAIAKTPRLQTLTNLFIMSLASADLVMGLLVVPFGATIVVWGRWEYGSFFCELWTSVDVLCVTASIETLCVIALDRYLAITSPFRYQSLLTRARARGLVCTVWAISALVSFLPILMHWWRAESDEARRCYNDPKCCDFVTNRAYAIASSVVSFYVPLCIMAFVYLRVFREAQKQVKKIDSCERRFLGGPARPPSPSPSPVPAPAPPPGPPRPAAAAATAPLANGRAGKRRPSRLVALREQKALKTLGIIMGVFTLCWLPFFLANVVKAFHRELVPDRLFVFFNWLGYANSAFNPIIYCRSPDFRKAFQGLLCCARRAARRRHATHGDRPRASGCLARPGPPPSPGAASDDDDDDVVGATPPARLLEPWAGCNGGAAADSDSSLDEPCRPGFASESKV
Sequence of Sodium-dependent noradrenaline transporter (P23975 whole entry): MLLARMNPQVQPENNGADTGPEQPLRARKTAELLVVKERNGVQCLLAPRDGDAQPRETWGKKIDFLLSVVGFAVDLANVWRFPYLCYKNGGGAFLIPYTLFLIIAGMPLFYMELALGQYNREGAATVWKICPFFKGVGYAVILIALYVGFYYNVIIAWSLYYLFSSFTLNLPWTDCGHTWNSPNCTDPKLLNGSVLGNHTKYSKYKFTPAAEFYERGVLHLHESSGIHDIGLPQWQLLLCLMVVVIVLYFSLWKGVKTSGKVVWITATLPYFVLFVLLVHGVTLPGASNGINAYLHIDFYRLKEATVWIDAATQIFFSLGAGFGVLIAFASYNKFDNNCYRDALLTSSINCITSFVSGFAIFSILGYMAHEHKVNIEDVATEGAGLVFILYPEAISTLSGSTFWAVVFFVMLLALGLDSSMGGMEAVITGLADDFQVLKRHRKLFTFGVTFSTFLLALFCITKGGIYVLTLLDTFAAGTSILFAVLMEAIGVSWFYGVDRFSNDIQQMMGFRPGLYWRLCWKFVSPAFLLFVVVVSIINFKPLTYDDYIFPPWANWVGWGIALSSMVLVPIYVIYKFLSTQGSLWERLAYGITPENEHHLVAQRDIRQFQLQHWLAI
Sequence of Kappa-type opioid receptor (P41145 whole entry): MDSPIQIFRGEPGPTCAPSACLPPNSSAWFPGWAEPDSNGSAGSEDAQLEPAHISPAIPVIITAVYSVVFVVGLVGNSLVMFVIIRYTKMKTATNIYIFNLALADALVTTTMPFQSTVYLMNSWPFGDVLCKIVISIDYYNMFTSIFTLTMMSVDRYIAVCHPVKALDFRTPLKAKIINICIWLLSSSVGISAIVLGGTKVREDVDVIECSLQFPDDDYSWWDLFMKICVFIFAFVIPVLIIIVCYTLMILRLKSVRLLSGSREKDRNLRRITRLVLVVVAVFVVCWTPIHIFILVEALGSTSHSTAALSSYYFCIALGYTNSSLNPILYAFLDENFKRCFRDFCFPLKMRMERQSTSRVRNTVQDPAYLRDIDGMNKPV
Sequence of Muscarinic acetylcholine receptor M3 (P20309 whole entry): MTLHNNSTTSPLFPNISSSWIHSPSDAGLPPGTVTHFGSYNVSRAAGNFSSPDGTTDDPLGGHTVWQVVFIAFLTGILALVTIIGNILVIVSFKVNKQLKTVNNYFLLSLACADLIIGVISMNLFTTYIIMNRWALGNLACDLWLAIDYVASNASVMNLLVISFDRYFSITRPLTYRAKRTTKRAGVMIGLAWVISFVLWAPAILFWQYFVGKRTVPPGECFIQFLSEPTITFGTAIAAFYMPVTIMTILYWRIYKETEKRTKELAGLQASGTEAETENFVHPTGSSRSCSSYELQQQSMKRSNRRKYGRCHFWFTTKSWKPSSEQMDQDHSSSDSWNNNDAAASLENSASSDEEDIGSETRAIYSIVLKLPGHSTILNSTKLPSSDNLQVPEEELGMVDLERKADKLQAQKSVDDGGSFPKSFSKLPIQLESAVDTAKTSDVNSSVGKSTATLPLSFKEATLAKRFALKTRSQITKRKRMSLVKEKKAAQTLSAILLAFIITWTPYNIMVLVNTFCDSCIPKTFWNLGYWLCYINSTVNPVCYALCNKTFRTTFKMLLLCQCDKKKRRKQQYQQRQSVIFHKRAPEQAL

SMILES	AC50 (Adenosine receptor A3) [µM]	AC50 [1] [µM]	AC50 [2] [µM]	AC50 [3] [µM]	AC50 [4] [µM]	AC50 (Glucocorticoid receptor) [µM]	AC50 [5] [µM]	AC50 [6] [µM]	AC50 (Thromboxane A2 receptor) [µM]	AC50 [7] [µM]
O=C(O)c1ccccc1Nc1cccc(C(F)(F)F)c1 [FLUFENAMIC ACID]	26.3	> 10	> 30	0.92	> 30	> 30	> 30	> 30	> 30	> 30
C#C[C@]1(O)CC[C@H]2[C@@H]3CCC4=CC(=O)CCC4=C3C=C[C@@]21CC [GESTRINONE]	22	> 30	> 30	> 30	> 30	0.01	> 30	23	> 30	> 30
CCCCCCOC(=O)CCC(=O)CN [HEXAMINOLEVULINATE]	> 30	> 30	> 30	> 30	> 30	> 30	> 30	> 30	> 30	> 30
CC#CCn1c(N2CCC[C@@H](N)C2)nc2c1c(=O)n(Cc1nc(C)c3ccccc3n1)c(=O)n2C [LINAGLIPTIN]	26.2	> 10	> 30	6.5	> 30	> 30	> 10	> 10	> 30	> 30
CC(C)OC(=O)C(C(=O)OC(C)C)=C1SC=CS1 [MALOTILATE]	> 30	> 30	> 30	> 30	> 30	> 30	> 30	> 30	> 30	> 30
CC(=O)Nc1c(I)c(C(=O)N[C@H]2C(O)O[C@H](CO)[C@@H](O)[C@@H]2O)c(I)c(N(C)C(C)=O)c1I (stereo not given in full) [METRIZAMIDE]	> 10	> 10	> 10	> 30	> 30	> 10	> 30	> 10	> 10	> 10
O=C1CN=C(c2ccccc2)c2cc(Cl)ccc2N1 [NORDAZEPAM]	> 30	> 10	> 30	> 10	> 10	> 30	> 10	9.97	> 30	> 10
CC(CCc1ccccc1)NC(C)C(O)c1ccc(O)cc1 (stereo not given) [NYLIDRIN]	> 30	3.95	> 30	> 10	> 10	> 30	> 10	4.98	> 30	11
CC(=O)O[C@H]1C[C@@H]2CC[C@@H]3[C@H](CC[C@@]4(C)[C@H]3C[C@H]([N+]3(C)CCCCC3)[C@@H]4OC(C)=O)[C@@]2(C)C[C@@H]1[N+]1(C)CCCCC1 [PANCURONIUM]	> 10	> 10	> 10	> 30	> 30	> 10	> 30	> 10	> 10	> 10
CC1(C)C(C=C(Cl)Cl)C1C(=O)OCc1cccc(Oc2ccccc2)c1 (stereo not given) [PERMETHRIN]	> 10	> 10	> 10	> 30	> 30	> 30	> 30	> 10	> 10	> 10
CC[N+]1(C)CCCC(OC(=O)C(O)(c2ccccc2)c2ccccc2)C1 (stereo not given) [PIPENZOLATE]	> 30	> 30	> 30	0.019	> 30	> 30	> 30	> 30	> 30	> 30
CC(=O)c1ccc2c(c1)N(CCCN1CCC(CCO)CC1)c1ccccc1S2 [PIPERACETAZINE]	> 30	> 30	> 30	9.5	> 30	> 30	> 30	4	> 30	1.8
NC(=O)CCC/N=C(\c1ccc(Cl)cc1)c1cc(F)ccc1O [PROGABIDE]	> 10	> 10	> 10	> 30	> 30	> 10	> 30	> 10	> 10	> 10
CCN(CC)CC(=O)Oc1ccc(NC(C)=O)cc1 [PROPACETAMOL]	> 30	> 30	> 30	> 30	> 30	> 30	> 30	18	> 30	> 30
CCCOC(C(=O)OC1CCN(C)CC1)(c1ccccc1)c1ccccc1 [PROPIVERINE]	> 30	> 30	> 30	0.83	> 30	> 30	> 30	11	> 30	> 30
Cc1ccc2c(-c3ccccc3)nc(=O)n(C(C)C)c2c1 [PROQUAZONE]	23	> 30	> 30	> 30	> 30	> 30	30	> 30	11	> 30
Cc1cc2nc3c(=O)[nH]c(=O)nc-3n(C[C@H](O)[C@H](O)[C@H](O)COP(=O)(O)O)c2cc1C [RIBOFLAVIN 5'-PHOSPHATE]	> 30	> 30	> 30	> 30	> 30	19	> 30	> 30	> 30	> 30
